# Experimental data from PMC11934087, “Rational Design of Stapled Covalent Peptide Modifiers of Oncoprotein E6 from Human Papillomavirus” (ACS Chemical Biology, 2025).
# Values joined by “and” are separate entries in the source; they are usually repeats but may differ in a detail not shown here. Equal entries are not always repeated. Where two headings read alike, the source gives them in different places. Where a SMILES comes first, the peptide text is derived from it. Bridges are numbered along the chain shown (N, C = ends). Where no end group is shown, it is not given here. [ ]: non-standard residue; d: D form. The star is where a group is joined. 5FAM = O=C1OC2(c3ccc(O)cc3Oc3cc(O)ccc32)c2ccc(C(=O)*)cc21; R8 = C=CCCCCCC[C@@](C)(N)C(=O)O; S5 = C=CCCC[C@](C)(N)C(=O)O; Dap = NC[C@H](N)C(=O)O; Acryloyl = C=CC(=O)*; BrAc = O=C(CBr)*; ClAc = O=C(CCl)*; βAla = NCCC(=O)O
# B1: (i, i + 4) stapled peptide 8 (peptide)
# chain: {5FAM-βAla}-AAAELTL[S5]ELL[S5]-NH2
# modifications: staple 8-12
# SMILES: CC(C)C[C@@H]1NC(=O)[C@H](CCC(=O)O)NC(=O)[C@@](C)(NC(=O)[C@H](CC(C)C)NC(=O)[C@@H](NC(=O)[C@H](CC(C)C)NC(=O)[C@H](CCC(=O)O)NC(=O)[C@H](C)NC(=O)[C@H](C)NC(=O)[C@H](C)NC(=O)CCNC(=O)c2ccc3c(c2)C(=O)OC32c3ccc(O)cc3Oc3cc(O)ccc32)[C@@H](C)O)CCCC=CCCC[C@@](C)(C(N)=O)NC(=O)[C@H](CC(C)C)NC1=O
# B2: (i, i + 4) stapled peptide 7 (peptide)
# chain: {5FAM-βAla}-AAAE[S5]TLQ[S5]LLG-NH2
# modifications: staple 5-9
# SMILES: CC(C)C[C@H](NC(=O)[C@H](CC(C)C)NC(=O)[C@]1(C)CCCC=CCCC[C@](C)(NC(=O)[C@H](CCC(=O)O)NC(=O)[C@H](C)NC(=O)[C@H](C)NC(=O)[C@H](C)NC(=O)CCNC(=O)c2ccc3c(c2)C(=O)OC32c3ccc(O)cc3Oc3cc(O)ccc32)C(=O)N[C@@H]([C@@H](C)O)C(=O)N[C@@H](CC(C)C)C(=O)N[C@@H](CCC(N)=O)C(=O)N1)C(=O)NCC(N)=O
# What was measured:
# [1] = Glutathione reactivity assay (HPLC time course)
# Experimental: To evaluate the reactivity toward off-target thiols, the acrylamide, bromoacetamide, and chloroacetamide covalent peptides were exposed to glutathione (10 equiv) in an HPLC time course assay over 96 h (Figure 4A). Here, a set of nonfluorescent peptides (2b, 3b, and 4b) were synthesized with an N-terminal tryptophan for quantification through absorbance measurements. Glutathione is the most abundant thiol in human cells,[40] and time point measurements were obtained by quenching reactions with cold acetonitrile containing TFA (0.1%) and 5-carboxyfluorescein as an internal standard.
# Covalent peptides (100 μM) were diluted from 10 mM DMSO stock solutions (1% final DMSO content) and incubated in buffer (500 μL total volume; 50 mM Tris, 200 mM NaCl) with glutathione (10 equiv, 1 mM) at 37 °C. To quench the reaction, 10 μL of the reaction mixture was added to 100 μL of cold acetonitrile containing 0.1% TFA [v/v] and 10 μM fluorescein, included as an internal standard. Reaction mixtures were first analyzed by LCMS after 1 h of incubation to assign the glutathione adduct peak by comparison to mixtures quenched immediately following peptide addition. […] The AUC of the reacted covalent peptide was normalized to the AUC of the fluorescein standard. These values were plotted and fitted with nonlinear regression using GraphPad Prism software.
# [2] = Off-target reactivity with DTT; assay type: physicochemical; details: DTT 1 mM
# [3] = molecular target: T1, GST-E6 (GST-tagged HPV16 E6 protein) (Human papillomavirus type 16, UniProt P03126); assay: Competitive fluorescence polarization assay against a fluorescent E6 peptide ligand; assay type: binding, Human Papillomavirus (HPV-16)
# T1 construct: host or cells: E. coli BL21
# Experimental: Next, covalent inhibition was evaluated by using a competitive FP assay. Recombinant GST-E6 was pre-incubated with a fluorescently labeled ligand for 30 min before addition of varying concentrations of the non-fluorescent covalent peptides (Figure 4B). Fluorophore polarization is greatest when the ligand is bound to its target, and consequently, a displacement of the ligand by the covalent peptide results in a decrease in polarization.[41],[42] The formation of a covalent bond between the peptide inhibitor and the C58 residue within E6 is expected to occur more slowly than noncovalent binding, permitting characterization of the affinity of the peptides 2b, 3b, and 4b.[41] […]
# For noncompetitive FP experiments, varying concentrations of GST-E6 protein (38 μM; 10 point 2-fold serial dilution) were incubated with 30 nM fluorescently labeled peptides in buffer (10 μL total volume; 50 mM Tris, 200 mM NaCl, 1 mM DTT, 0.1% [v/v] Trition X-100) in black 384-well plates. […] Following incubation, FP at equilibrium was measured on a Tecan M1000 microplate reader (ex = 470 nm, em = 525; gain optimized, 200 flashes, 300 ms settle time, G-factor reference value 30 mP). Measured polarizations were fitted to a sigmoidal dose–response curve using GraphPad Prism software to generate KD values.
# [4] = molecular target: T1, GST-E6 (GST-tagged HPV16 E6 protein); assay: Noncompetitive fluorescence polarization (FP) binding assay; design: species or system Human Papillomavirus (HPV-16)
# Experimental: An N-terminal carboxyfluorescein was included for FP analysis of binding affinity for both the natural backbone and the stapled peptides.
# For noncompetitive FP experiments, varying concentrations of GST-E6 protein (38 μM; 10 point 2-fold serial dilution) were incubated with 30 nM fluorescently labeled peptides in buffer (10 μL total volume; 50 mM Tris, 200 mM NaCl, 1 mM DTT, 0.1% [v/v] Trition X-100) in black 384-well plates. For competitive FP experiments, 100 nM GST-E6 was incubated with 30 nM fluorescently labeled noncovalent peptide and varying concentrations (20 μM; 3-fold serial dilution) of covalent peptide in buffer (20 μL) with a final DMSO content of 0.5% [v/v]. Negative control (polarization reference; 30 nM fluorescent peptide, no protein) and blank reference (buffer alone) were included in triplicate for G-factor calibration. Sample plates were centrifuged (1 min, 500g) and incubated for 30 min at RT. Following incubation, FP at equilibrium was measured on a Tecan M1000 microplate reader (ex = 470 nm, em = 525; gain optimized, 200 flashes, 300 ms settle time, G-factor reference value 30 mP). Measured polarizations were fitted to a sigmoidal dose–response curve using GraphPad Prism software to generate KD values.
# bovine α-chymotrypsin = bovine α-chymotrypsin (Bos taurus, UniProt P00766); assay: in vitro; details: 50 μM peptide, 50 nM bovine α-chymotrypsin, pH 7.5, room temp, HPLC
# Experimental: Chymotrypsin was chosen due to its substrate selectivity for peptides containing hydrophobic side chains, including leucine, making the LxxLL motif a well-suited substrate for proteolytic cleavage by this protease.[54]
# For each time point, a 50 μL aliquot was removed from the reaction mixture and quenched with 40 μL of 0.5% [v/v] trifluoroacetic acid in acetonitrile. Quenched samples were subsequently analyzed by analytical reverse-phase HPLC, and the remaining undigested peptide was quantified by integration of AUC. A plot of percent peptide remaining vs time was fit to a one-phase exponential decay to calculate half-life using GraphPad Prism software.
# [5] = molecular target: T2, Glutathione S-transferase (GST) tagged HPV-16 E6 (Human papillomavirus type 16 (HPV-16), UniProt P03126 1-158); assay: fluorescence polarisation; GST-E6 titrated (from 38 μM, 10 point 2-fold serial dilution) against 30 nM fluorescent peptide; 50 mM Tris, 200 mM NaCl, 1 mM DTT, 0.1% Triton X-100; 30 min at RT; sigmoidal dose-response fit; details: both partners purified
# T2 construct: Oncoprotein E6 of human papillomavirus type 16; GST fusion printed as 47 kDa; also called GST-E6; E6-GST; source: E. coli BL21, purified (glutathione agarose)
# [6] = molecular target: T2, Glutathione S-transferase (GST) tagged …; assay: fluorescence polarisation; details: both partners purified
# T1 sequence (P03126 whole entry): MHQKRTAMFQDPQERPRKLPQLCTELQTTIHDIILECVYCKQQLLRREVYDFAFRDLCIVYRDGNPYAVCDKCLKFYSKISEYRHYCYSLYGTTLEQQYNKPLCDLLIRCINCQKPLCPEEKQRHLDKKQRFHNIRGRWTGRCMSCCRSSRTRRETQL
# T2 sequence (P03126 whole entry, the tested form may be a part): as the sequence (P03126 whole entry) above
molecule,measurement,setting,value
C=CC(=O)NC[C@H](NC(=O)[C@H](CC(C)C)NC(=O)[C@H](CC(C)C)NC(=O)[C@H](CCC(=O)O)NC(=O)[C@H](CCC(N)=O)NC(=O)[C@H](CC(C)C)NC(=O)[C@@H](NC(=O)[C@H](CC(C)C)NC(=O)[C@H](CCC(=O)O)NC(=O)[C@H](C)NC(=O)[C@H](C)NC(=O)[C@H](C)NC(=O)CCNC(=O)[C@H](Cc1c[nH]c2ccccc12)NC(C)=O)[C@@H](C)O)C(N)=O [2b] (Ac-W[βAla]AAAELTLQELL[Dap](Acryloyl)-NH2),t1/2 of reaction with glutathione,[1],10.3 h
CC(=O)N[C@@H](Cc1c[nH]c2ccccc12)C(=O)NCCC(=O)N[C@@H](C)C(=O)N[C@@H](C)C(=O)N[C@@H](C)C(=O)N[C@@H](CCC(=O)O)C(=O)N[C@@H](CC(C)C)C(=O)N[C@H](C(=O)N[C@@H](CC(C)C)C(=O)N[C@@H](CCC(N)=O)C(=O)N[C@@H](CCC(=O)O)C(=O)N[C@@H](CC(C)C)C(=O)N[C@@H](CC(C)C)C(=O)N[C@@H](CNC(=O)CBr)C(N)=O)[C@@H](C)O [3b] (Ac-W[βAla]AAAELTLQELL[Dap](BrAc)-NH2),t1/2 of reaction with glutathione,"[1]; 100 μM peptide, glutathione 10 equiv (1 mM), 50 mM Tris, 200 mM NaCl, 1% DMSO, 37 °C, HPLC 280 nm, GSH adduct peak area, n = 3",0.142 h
same,half-life of off-target reaction with DTT,[2],2.1 min
CC(=O)N[C@@H](Cc1c[nH]c2ccccc12)C(=O)NCCC(=O)N[C@@H](C)C(=O)N[C@@H](C)C(=O)N[C@@H](C)C(=O)N[C@@H](CCC(=O)O)C(=O)N[C@@H](CC(C)C)C(=O)N[C@H](C(=O)N[C@@H](CC(C)C)C(=O)N[C@@H](CCC(N)=O)C(=O)N[C@@H](CCC(=O)O)C(=O)N[C@@H](CC(C)C)C(=O)N[C@@H](CC(C)C)C(=O)N[C@@H](CNC(=O)CCl)C(N)=O)[C@@H](C)O [4b] (Ac-W[βAla]AAAELTLQELL[Dap](ClAc)-NH2),EC50,[3],0.04 µM
same,t1/2 of reaction with glutathione,"[1]; 100 μM peptide, glutathione 10 equiv (1 mM), 50 mM Tris, 200 mM NaCl, 1% DMSO, 37 °C, up to 96 h, HPLC 280 nm, GSH adduct peak area, n = 3",7.0 h
CC(C)C[C@H](NC(=O)[C@H](CC(C)C)NC(=O)[C@H](CCC(=O)O)NC(=O)[C@H](CCC(N)=O)NC(=O)[C@H](CC(C)C)NC(=O)[C@@H](NC(=O)[C@]1(C)CCCC=CCCC[C@](C)(NC(=O)CCNC(=O)c2ccc3c(c2)C(=O)OC32c3ccc(O)cc3Oc3cc(O)ccc32)C(=O)N[C@@H](C)C(=O)N[C@@H](C)C(=O)N[C@@H](CCC(=O)O)C(=O)N1)[C@@H](C)O)C(=O)NCC(N)=O [compound 5] ({5FAM-βAla}-[S5]AAE[S5]TLQELLG-NH2; staple 1-5),Kd,[4],< 1 µM
CC(C)C[C@H](NC(=O)[C@H](CC(C)C)NC(=O)[C@]1(C)CCCC=CCCC[C@](C)(NC(=O)[C@H](CCC(=O)O)NC(=O)[C@H](C)NC(=O)[C@H](C)NC(=O)[C@H](C)NC(=O)CCNC(=O)c2ccc3c(c2)C(=O)OC32c3ccc(O)cc3Oc3cc(O)ccc32)C(=O)N[C@@H]([C@@H](C)O)C(=O)N[C@@H](CC(C)C)C(=O)N[C@@H](CCC(N)=O)C(=O)N1)C(=O)NCC(N)=O [compound 7] ({5FAM-βAla}-AAAE[S5]TLQ[S5]LLG-NH2; staple 5-9),Kd,[4],3 µM
CC(C)C[C@H](NC(=O)[C@H](CC(C)C)NC(=O)[C@H](CCC(=O)O)NC(=O)[C@]1(C)CCCC=CCCCCCC[C@@](C)(NC(=O)CCNC(=O)c2ccc3c(c2)C(=O)OC32c3ccc(O)cc3Oc3cc(O)ccc32)C(=O)N[C@@H](C)C(=O)N[C@@H](C)C(=O)N[C@@H](CCC(=O)O)C(=O)N[C@@H](CC(C)C)C(=O)N[C@@H]([C@@H](C)O)C(=O)N[C@@H](CC(C)C)C(=O)N1)C(=O)NCC(N)=O [compound 9] ({5FAM-βAla}-[R8]AAELTL[S5]ELLG-NH2; staple 1-8),Kd,[4],0.43 µM and < 1 µM
same,degradation by chymotrypsin within 4 h,bovine α-chymotrypsin; 4 h,no degradation
same,degradation by chymotrypsin on continued incubation up to 16 h,bovine α-chymotrypsin; up to 16 h,no significant degradation
CC(C)C[C@H](NC(=O)[C@H](CC(C)C)NC(=O)[C@]1(C)CCCC=CCCCCCC[C@@](C)(NC(=O)[C@H](C)NC(=O)CCNC(=O)c2ccc3c(c2)C(=O)OC32c3ccc(O)cc3Oc3cc(O)ccc32)C(=O)N[C@@H](C)C(=O)N[C@@H](CCC(=O)O)C(=O)N[C@@H](CC(C)C)C(=O)N[C@@H]([C@@H](C)O)C(=O)N[C@@H](CC(C)C)C(=O)N[C@@H](CCC(N)=O)C(=O)N1)C(=O)NCC(N)=O [compound 10] ({5FAM-βAla}-A[R8]AELTLQ[S5]LLG-NH2; staple 2-9),Kd,[4],> 38 µM
B1,Kd,[5],8 µM
AAAELTLQELL-{Dap(bromoacetamide)} (not fully specified (N-terminus)) [nonfluorescent bromoacetamide covalent peptide 3b],EC50,[6],2.41 µM
"{5FAM-βAla}-[R8]AAELTL[S5]ELLG (staple 1-8) [(i, i + 7) stapled peptide 9]",Kd,[5],0.431 µM
B2,Kd,[5],3.2 µM
"{5FAM-βAla}-AAAE[R8]TLQELL[S5] (staple 5-12) [(i, i + 7) stapled peptide 11]",Kd,[5],7 µM
"{5FAM-βAla}-[S5]AAE[S5]TLQELLG (staple 1-5) [(i, i + 4) stapled peptide 5]",Kd,[5],0.59 µM
AAAELTLQELL-{Dap(acrylamide)} (not fully specified (N-terminus)) [nonfluorescent acrylamide covalent peptide 2b],EC50,[6],2.07 µM
